Source: patent US10420733B2, “Transdermal delivery system containing methylphenidate or its salts and methods thereof” (TAHO Pharmaceuticals Ltd., priority 2016, dated 2019)

Test: Maximum amount of methylphenidate dissolved in various adhesives
Format: physicochemical
Description: Various adhesives were tested to determine the maximum amount of methylphenidate could be dissolved.

COC(=O)C(c1ccccc1)C1CCCCN1 (stereo not shown) [methylphenidate, a-phenyl-2-piperidineacetic acid methyl ester]
solubility in Duro Tak 87-6911: highly soluble
